Read-outs that look alike come from different tables or passages of the source.
How the values were obtained:
[1] = tested on: human liver cancer (Hep3B) cell line; experiment: MTT cytotoxicity assay, Hep3B; details: Homo sapiens, Hep3B
Protocol: (§2) The newly synthesized compounds were evaluated for their in vitro growth inhibition of three human tumor cell lines representing different tumor types, namely, breast adenocarcinoma (MCF-7), liver hepatocellular carcinoma (Hep3B) and leukemia-SR. […] The breast tumor cell line (MCF-7), hepatic tumor cell line (Hep3B) and leukemia-SR cell line were obtained from American Type Culture Collection. The cells were cultured using Dulbecco's modified Eagle's medium (DMEM) (Invitrogen/Life Technologies) supplemented with 10% fetal bovine serum (FBS) (Hyclone), 10 μg mL^−1 of insulin (Sigma), and 1% penicillin–streptomycin. […] For 24 hours before to the MTT experiment, plate cells (densities of 1.2–1.8 × 10 000 cells per well) were layered in a 96-well plate containing 100 μL of the tested chemical per well and 100 μL of full growth media.
(§3) The culture medium was transferred to a centrifuge tube. […] Then 2.0 to 3.0 mL of Trypsin EDTA solution was added to the flask, and the cells were observed using an inverted microscope until the cell layer became dispersed (usually within 5–15 min). After that, 6.0 to 8.0 mL of complete growth medium was added and the cells were aspirated by gently pipetting. The cell suspension was transferred to the centrifuge tube with the medium and cells from step 1 and centrifuged at approximately 125 g for 5–10 min. The supernatant was discarded. The cell pellet was re-suspended in a fresh growth medium. Appropriate aliquots of the cell suspension were added to new culture vessels.
(§4) For the best results, the cells in the log phase of growth should be employed and the final cell number should not exceed 10^6 cells per cm^2. Each test should include a blank containing a complete medium without cells. Cultures from the incubator were transferred into a laminar flow hood or other sterile work area. […] Reconstituted MTT was added in an amount equal to 10% of the culture medium volume. Cultures were returned to the incubator for 2–4 h depending on the cell type and maximum cell density. An incubation period of 2 h is generally adequate but may be lengthened for low cell densities or cells with lower metabolic activity. The incubation times should be consistent when making comparisons. […] Occasionally, especially in dense cultures, pipetting up and down may be required to completely dissolve the MTT formazan crystals. The absorbance was spectrophotometrically measured at a wavelength of 570 nm. The background absorbance of multiwell plates was measured at 690 nm and subtracted from the 450 nm measurement. Tests performed in multiwell plates might be read using an appropriate type of plate reader or the contents of individual wells might be transferred to appropriate size cuvettes for spectrophotometric measurement.

in vitro [2] = details: human, THLE2 normal liver cells
Protocol: (§5) The following normal cell lines were selected: normal breast MCF-10a, normal liver THLE2 and normal lymphocyte PCS-800-011. […] Moreover, the toxic effect of representative target compounds was evaluated on normal breast (MCF10a), normal liver (THLE2) and normal lymphocyte (PCS-800-011) cell lines using an MTT assay. […] The cells were cultured using Dulbecco's modified Eagle's medium (DMEM) (Invitrogen/Life Technologies) supplemented with 10% fetal bovine serum (FBS) (Hyclone), 10 μg mL^−1 of insulin (Sigma), and 1% penicillin–streptomycin. All chemicals and reagents were purchased from Sigma-Aldrich or Invitrogen. For 24 hours before to the MTT experiment, plate cells (densities of 1.2–1.8 × 10 000 cells per well) were layered in a 96-well plate containing 100 μL of the tested chemical per well and 100 μL of full growth media.
as §3, §4

[3] = tested on: leukemia (L-SR) cell line; experiment: MTT cytotoxicity assay, L-SR; details: Homo sapiens, 48 h, read-out: Cytotoxicity IC50 L-SR
Protocol: as §2, §3, §4

[4] = tested on: human breast cancer (MCF-7) cell line; experiment: MTT cytotoxicity assay, MCF-7; details: Homo sapiens, MCF7, 48 h, read-out: Cytotoxicity IC50 MCF-7
Protocol: as §2, §3, §4

[5] = target: T1, human DNA topoisomerase II beta (Topo2β) (Homo sapiens, UniProt Q02880); experiment: Topo2β polymerase inhibition assay (ELISA), Hep3B; type: cell-based; design: concentration or dose not given beside the values; details: against Hep3B cell line
T1 sequence (Q02880 whole entry): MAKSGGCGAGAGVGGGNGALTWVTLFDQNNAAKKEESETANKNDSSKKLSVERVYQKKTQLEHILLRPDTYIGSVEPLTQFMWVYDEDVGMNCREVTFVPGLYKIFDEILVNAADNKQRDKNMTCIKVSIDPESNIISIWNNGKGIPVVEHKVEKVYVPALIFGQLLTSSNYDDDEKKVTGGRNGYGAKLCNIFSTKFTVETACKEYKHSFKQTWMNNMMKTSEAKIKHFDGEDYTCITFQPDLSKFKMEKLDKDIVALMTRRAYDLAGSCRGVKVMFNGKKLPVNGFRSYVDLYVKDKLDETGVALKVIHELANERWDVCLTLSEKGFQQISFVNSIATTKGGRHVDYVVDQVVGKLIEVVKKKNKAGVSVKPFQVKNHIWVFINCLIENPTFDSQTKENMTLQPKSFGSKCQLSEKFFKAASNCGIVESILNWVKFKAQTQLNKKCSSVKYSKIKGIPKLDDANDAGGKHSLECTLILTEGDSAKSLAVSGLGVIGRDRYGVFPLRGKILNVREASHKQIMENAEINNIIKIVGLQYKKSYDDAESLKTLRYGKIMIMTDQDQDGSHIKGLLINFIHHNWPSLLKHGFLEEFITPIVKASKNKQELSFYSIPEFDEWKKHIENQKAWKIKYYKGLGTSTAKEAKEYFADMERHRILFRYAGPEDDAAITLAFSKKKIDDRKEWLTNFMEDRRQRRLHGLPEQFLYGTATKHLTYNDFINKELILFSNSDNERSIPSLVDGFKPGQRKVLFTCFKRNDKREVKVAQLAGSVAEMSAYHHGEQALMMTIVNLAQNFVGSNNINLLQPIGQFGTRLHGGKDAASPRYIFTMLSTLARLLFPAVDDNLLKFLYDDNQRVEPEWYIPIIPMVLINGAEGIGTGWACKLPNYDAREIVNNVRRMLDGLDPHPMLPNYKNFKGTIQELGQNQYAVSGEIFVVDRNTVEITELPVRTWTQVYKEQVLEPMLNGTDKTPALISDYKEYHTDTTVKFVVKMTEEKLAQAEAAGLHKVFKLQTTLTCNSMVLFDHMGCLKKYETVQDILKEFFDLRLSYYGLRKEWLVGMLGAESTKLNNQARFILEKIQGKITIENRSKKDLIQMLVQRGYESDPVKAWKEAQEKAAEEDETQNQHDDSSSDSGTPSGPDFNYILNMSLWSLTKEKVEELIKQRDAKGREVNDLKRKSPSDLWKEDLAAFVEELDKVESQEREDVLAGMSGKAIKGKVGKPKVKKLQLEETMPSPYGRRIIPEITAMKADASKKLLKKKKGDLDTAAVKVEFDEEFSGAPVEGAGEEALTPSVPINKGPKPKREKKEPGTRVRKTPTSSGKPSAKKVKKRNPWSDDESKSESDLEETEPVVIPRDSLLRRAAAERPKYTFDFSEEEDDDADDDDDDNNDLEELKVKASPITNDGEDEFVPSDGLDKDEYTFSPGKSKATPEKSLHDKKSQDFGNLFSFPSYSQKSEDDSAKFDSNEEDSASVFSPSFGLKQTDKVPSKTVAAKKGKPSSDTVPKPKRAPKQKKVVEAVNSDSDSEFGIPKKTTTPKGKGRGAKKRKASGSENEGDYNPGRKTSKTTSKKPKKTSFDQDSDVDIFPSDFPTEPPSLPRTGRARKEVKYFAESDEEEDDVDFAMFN
Protocol: (§1) This assay was employed to predict the inhibitory effects of novel compounds on Topo2β. […] The melting points were determined using a Stuart apparatus, and the values given are uncorrected. IR spectra were recorded using a Shimadzu IR 4000s spectrophotometer (KBr, cm^−1) at the College of Pharmaceutical Sciences and Drug Manufacturing, Misr University for Science and Technology, Egypt. ^1H NMR spectra were recorded using a Bruker 400 MHz (Bruker Corp., Billerica, MA, USA) spectrophotometer, Faculty of Pharmacy, Cairo University, Cairo, Egypt and the Centre of Drug Discovery Research & Development, Faculty of Pharmacy, Ain shams University, and a Jeol 500 MHz spectrophotometer at the National Research Center. Chemical shifts were recorded in ppm on a δ scale, coupling constants (J) were given in Hz and peak multiplicities are designed as follows: s, singlet; d, doublet; t, triplet; m, multiplet. ^13C NMR spectra were recorded using a Bruker 100 MHz spectrophotometer, Faculty of Pharmacy, Cairo University and the Centre of Drug Discovery Research & Development, Faculty of Pharmacy, Ain shams University, and a Jeol 500 MHz spectrophotometer at the National Research Center. Chemical shifts were recorded in ppm on a δ scale. Microanalyses for C, H, and N were carried out at the Regional Center for Mycology and Biotechnology, Faculty of Pharmacy, Al-Azhar University. C, H, and N analysis values were accepted within the range of ± 0.4 of the calculated percentages. […] The used eluting system was methanol : hexane with a ratio of 9.5/0.5 respectively. Scientific microwave MAS-II was used under 300 W microwave irradiation, operating at 80 °C. The evaluation of the cytotoxic activity was performed at VACSERA, Giza, Egypt, using MCF-7, Hep3B and leukemia SR cell lines. Enzyme assay, cell cycle analysis, apoptosis and caspase-3 assay were carried out at VACSERA, Giza, Egypt using an SEB870Hu 96 Tests Enzyme-linked Immunosorbent Assay Kit for Topoisomerase II Beta.
This assay employs a quantitative sandwich enzyme immunoassay technique. […] Antibody specific for Topo2β was pre-coated onto a microplate. Standards and samples were pipetted into the wells and any Topo2β present was bound by the immobilized antibody. After removing any unbound substances, a biotin-conjugated antibody specific for Topo2β was added to the wells. After washing, avidin-conjugated Horseradish Peroxidase (HP) was added to the wells. Following washing to remove any unbound avidin–enzyme reagent, a substrate solution was added to the wells and color develops in proportion to the amount of Topo2β bound in the initial step. The color development was stopped, and the intensity of the color was measured. […] The sensitivity of this assay or lower limit of detection (LLD) is defined as the lowest protein concentration that could be differentiated from zero. The mean OD value of 20 replicates of the zero standard was determined and added to their three standard deviations.[64]

Hep3B cells [6] = experiment: Annexin V-FITC/propidium iodide apoptosis assay; details: for Total %: apoptosis and necrosis total; for Total % / Early apoptosis % / Late apoptosis % / Necrosis %: treated at IC50; for percentage of apoptotic cells (summation of Q2 and Q3): early plus late apoptosis
Protocol: An Annexin-V-FITC apoptosis assay was used to determine apoptosis and necrosis. The cells were incubated with Annexin-V-FITC, centrifuged and then resuspended in 500 μL of 1× binding buffer. Then 5 μL of Annexin-V-FITC and 5 μL of propidium iodide (PI) were added, and the cells were then trypsinized and washed once with serum-containing media before incubation with Annexin-V-FITC at room temperature for 5 min in the dark. A FACSort Calibur flow cytometer (Becton Dickinson Biosciences) was used to analyze apoptosis.[56,57]

active caspase-3 = experiment: Caspase-3 enzyme assay (ELISA) in Hep3B; type: cell-based, human; details: Hep3B cells
Protocol: Caspases are crucial mediators of apoptosis. Among them, caspase-3 is considered as a key effector caspase in inducing cell apoptosis and serves as a marker of programmed cell death.[58] Compounds 3c and 5 were tested for their effect on caspase-3 levels in the most sensitive liver cancer cell line Hep3B.
Caspase-3 is one of the crucial mediators of programmed cell death (apoptosis) as it is essential for the formation of apoptotic bodies.[67–70] Active caspase-3 level was measured in pg ml^−1 protein using an Invitrogen ELISA kit (catalog KHO1091). The following procedures were performed. First, 100 μL of the standard diluent buffer was added to the zero standard wells. Then, 100 μL of standards and controls or diluted samples were added to the appropriate microtitre wells. Cover wells were covered and incubated for 2 h at room temperature. The solution was decanted from wells. Then 100 μL of active caspase-3 detection antibody solution was pipetted into each well. The plate was covered and incubated for 1 h at room temperature. After that, 100 μL of Anti-Rabbit IgG HP working solution was added to each well. The wells were covered with a plate cover and incubated for 30 min at room temperature. Then, 100 μL of stabilized chromogen was added to each well. The liquid in the wells will begin to turn blue, and the wells were incubated for 30 min at room temperature. A stop solution was added to each well. The solution in the wells should change from blue to yellow. The plate was read within 2 h after adding the stop solution. Curve fitting software was used to generate the standard curve.

Hep3B cells [7] = experiment: Cell cycle analysis by propidium iodide staining, flow cytometry; type: cell-based, human; details: Hep3B cells treated at IC50
Protocol: An apoptosis study was performed at the Cell Culture Unit, VACSERA, Cairo, Egypt. […] The treated cells were washed twice with ice-cold phosphate-buffered saline (PBS), centrifuged and then fixed in ice-cold 70% (v/v) ethanol to prevent clustering of cells during fixation. […] Then 3 mL of PBS was added, and the cells were centrifuged to remove the supernatant. The cells were analyzed by flow cytometry using a FACSort Calibur (Becton Dickinson Biosciences, CA, USA). Finally, the Cell Quest software was used to determine the cell cycle distribution.[65,66]

[8] = target: T1, human DNA topoisomerase II beta (Topo2β); experiment: Topo2β polymerase inhibition assay (ELISA), L-SR; type: cell-based; design: endogenous in cells; host or cells: MCF-7 (A4), Hep3B (A5), L-SR (A6) human cancer cell lines; details: against L-SR cell line
Protocol: as §1
This assay employs a quantitative sandwich enzyme immunoassay technique. […] Antibody specific for Topo2β was pre-coated onto a microplate. Standards and samples were pipetted into the wells and any Topo2β present was bound by the immobilized antibody. After removing any unbound substances, a biotin-conjugated antibody specific for Topo2β was added to the wells. After washing, avidin-conjugated Horseradish Peroxidase (HP) was added to the wells. […] The color development was stopped, and the intensity of the color was measured. […] The mean OD value of 20 replicates of the zero standard was determined and added to their three standard deviations.[64]

[9] = target: T1, human DNA topoisomerase II beta (Topo2β); experiment: Topo2β polymerase inhibition assay (ELISA), MCF-7; type: cell-based; details: against MCF-7 cell line
Protocol: as §1, with “Enzyme assay, cell cycle analysis, apoptosis and caspase-3 assay were carried out at VACSERA, Giza, Egypt using an SEB870Hu 96 Tests Enzyme-linked Immunosorbent Assay Kit for Topoisomerase II Beta.” left out
This assay employs a quantitative sandwich enzyme immunoassay technique. […] The color development was stopped, and the intensity of the color was measured. […] The mean OD value of 20 replicates of the zero standard was determined and added to their three standard deviations.[64]

in vitro [10] = details: human, PCS-800-011 normal lymphocyte cells
Protocol: as §5, §3
(§6) For the best results, the cells in the log phase of growth should be employed and the final cell number should not exceed 10^6 cells per cm^2. […] The absorbance was spectrophotometrically measured at a wavelength of 570 nm. The background absorbance of multiwell plates was measured at 690 nm and subtracted from the 450 nm measurement. Tests performed in multiwell plates might be read using an appropriate type of plate reader or the contents of individual wells might be transferred to appropriate size cuvettes for spectrophotometric measurement.

in vitro [11] = details: human, MCF-10a normal breast cells
Protocol: The following normal cell lines were selected: normal breast MCF-10a, normal liver THLE2 and normal lymphocyte PCS-800-011. […] Moreover, the toxic effect of representative target compounds was evaluated on normal breast (MCF10a), normal liver (THLE2) and normal lymphocyte (PCS-800-011) cell lines using an MTT assay. […] The cells were cultured using Dulbecco's modified Eagle's medium (DMEM) (Invitrogen/Life Technologies) supplemented with 10% fetal bovine serum (FBS) (Hyclone), 10 μg mL^−1 of insulin (Sigma), and 1% penicillin–streptomycin. All chemicals and reagents were purchased from Sigma-Aldrich or Invitrogen. For 24 hours before to the MTT experiment, plate cells (densities of 1.2–1.8 × 10 000 cells per well) were layered in a 96-well plate containing 100 μL of the tested chemical per well and 100 μL of full growth media. […]
as §6

[12] = 48 h, read-out: Cytotoxicity IC50 Hep3B

| IC50 at 48 h (in vitro [2]) [µM] | Topo2β% inhibition [5] [%] | Topo2β% inhibition [8] [%] | Topo2β% inhibition [9] [%] | IC50 at 48 h (in vitro [10]) [µM] | IC50 at 48 h (in vitro [11]) [µM] | melting point [°C] | Structure (SMILES) | IC50 [1] [µM] | IC50 [1, 12] [µM] | IC50 [3] [µM] | IC50 [4] [µM] | Total % (Hep3B cells [6]) [%] | percentage of apoptotic cells (summation of Q2 and Q3) (Hep3B cells [6]) [%] | Early apoptosis % (Hep3B cells [6]) [%] | Late apoptosis % (Hep3B cells [6]) [%] | Necrosis % (Hep3B cells [6]) [%] | Caspase-3 Conc. (active caspase-3) [pg/mL] | DNA content %G0–G1 (Hep3B cells [7]) [%] | DNA content %G2/M (Hep3B cells [7]) [%] | DNA content %S (Hep3B cells [7]) [%] |
| --- | --- | --- | --- | --- | --- | --- | --- | --- | --- | --- | --- | --- | --- | --- | --- | --- | --- | --- | --- | --- |
| 29.9 ± 1.68 | 68.77 | 69.38 | – | – | – | 238 to 240 | CC1COc2c(N3CCN(C)CC3)c(F)cc3c(=O)c(C(=O)N4CCCCC4)cn1c23 (centres unmarked) [Compound 13a, 9-Fluoro-3-methyl-10-(4-methylpiperazin-1-yl)-6-((piperidin-1-yl)carbonyl)-2,3-dihydro-7H-[1,4]oxazino[2,3,4-ij]quinolin-7-one] | – | 3.46 ± 0.16 | 3.12 ± 0.19 | 12.1 ± 0.56 | – | – | – | – | – | – | – | – | – |
| 24 ± 1.35 | 70.93 | – | – | – | – | 239 to 241 | CC1COc2c(N3CCN(C)CC3)c(F)cc3c(=O)c(C(=O)N4CCN(C)CC4)cn1c23 (centres unmarked) [Compound 13c, 9-Fluoro-3-methyl-10-(4-methylpiperazin-1-yl)-6-((4-methylpiperazin-1-yl)carbonyl)-2,3-dihydro-7H-[1,4]oxazino[2,3,4-ij]quinolin-7-one] | – | 1.04 ± 0.05 | 13.6 ± 0.82 | 7.26 ± 0.34 | – | – | – | – | – | – | – | – | – |

More lines, now with the values behind:

| Structure (SMILES) | IC50 at 48 h (in vitro [2]) [µM] | Topo2β% inhibition [5] [%] | Topo2β% inhibition [8] [%] | Topo2β% inhibition [9] [%] | IC50 at 48 h (in vitro [10]) [µM] | IC50 at 48 h (in vitro [11]) [µM] | melting point [°C] | IC50 [1] [µM] | IC50 [1, 12] [µM] | IC50 [3] [µM] | IC50 [4] [µM] | Total % (Hep3B cells [6]) [%] | percentage of apoptotic cells (summation of Q2 and Q3) (Hep3B cells [6]) [%] | Early apoptosis % (Hep3B cells [6]) [%] | Late apoptosis % (Hep3B cells [6]) [%] | Necrosis % (Hep3B cells [6]) [%] | Caspase-3 Conc. (active caspase-3) [pg/mL] | DNA content %G0–G1 (Hep3B cells [7]) [%] | DNA content %G2/M (Hep3B cells [7]) [%] | DNA content %S (Hep3B cells [7]) [%] |
| --- | --- | --- | --- | --- | --- | --- | --- | --- | --- | --- | --- | --- | --- | --- | --- | --- | --- | --- | --- | --- |
| COc1ccc(C=NNC(=O)c2cn3c4c(c(N5CCN(C)CC5)c(F)cc4c2=O)OCC3C)cc1 (centres unmarked) [Compound 3c, 9-Fluoro-3-methyl-10-(4-methylpiperazin-1-yl)-N′-(4-methoxybenzylidene)-7-oxo-2,3-dihydro-7H-[1,4]oxazino[2,3,4-ij]quinoline-6-carbohydrazide] | 20 ± 0.76 | 81.33 | – | – | – | – | – | 0.43 | 0.43 ± 0.01 | 22.4 ± 1.34 | 40.6 ± 3.17 | 32.91 | 25.87 | 11.54 | 14.33 | 7.04 | 407.3 ± 7.55 | 43.53 | 18.91 | 37.56 |
| CCOC(=O)CC(C)=NNC(=O)c1cn2c3c(c(N4CCN(C)CC4)c(F)cc3c1=O)OCC2C (centres unmarked) [Compound 5, Ethyl 3-(2-(9-fluoro-3-methyl-10-(4-methylpiperazin-1-yl)-7-oxo-2,3-dihydro-7H-[1,4]oxazino[2,3,4-ij]quinoline-6-carbonyl)hydrazineylidene)butanoate] | 40.6 ± 2.28 | 83.73 | 80.29 | 78.30 | 19.7 ± 1.03 | 30.4 ± 1.66 | – | – | 3.77 ± 0.17 | 0.96 ± 0.06 | 1.4 ± 0.06 | 38.11 | 32.21 | 9.54 | 22.67 | 5.9 | 375.8 ± 16.6 | 38.49 | 22.42 | 39.09 |
| CC1COc2c(N3CCN(C)CC3)c(F)cc3c(=O)c(C(=O)N4NC(=O)CC4=N)cn1c23 (centres unmarked) [Compound 7, 9-Fluoro-6-((5-imino-3-oxopyrazolidine-1-yl)carbonyl)-3-methyl-10-(4-methylpiperazin-1-yl)-2,3-dihydro-7H-[1,4]oxazino[2,3,4-ij]quinolin-7-one] | 68.5 ± 3.86 | 71.92 | – | – | 32.1 ± 1.68 | – | 101 to 103 | – | 6.99 ± 0.32 | 12.1 ± 0.73 | 4.37 ± 0.2 | – | – | – | – | – | – | – | – | – |
| COc1cc([C@@H]2c3cc4c(cc3[C@@H](O[C@@H]3O[C@@H]5CO[C@@H](C)O[C@H]5[C@H](O)[C@H]3O)[C@H]3COC(=O)[C@H]23)OCO4)cc(OC)c1O [Etoposide, reference compound] | 35.2 ± 2.19 | 73.22 | 69.85 | 63.18 | 37.1 ± 1.79 | 23.9 ± 1.55 | – | 21.9 | 21.9 ± 0.72 | 3.38 ± 0.13 | 16.3 ± 0.72 | 27.09 | – | 3.41 | 9.37 | 14.31 | 460 ± 11.3 | 36.14 | 37.62 | 26.24 |

Source: article PMC11369887 (RSC Advances, 2024)
